Test results as given in US9187464B2, “TRPV4 antagonists” (GlaxoSmithKline Intellectual Property (No. 2) Limited, priority 2011, dated 2015).

Biological target: T1, human TRPV4 (Homo sapiens, UniProt Q9HBA0)
T1 construct: expressed in transfected cells; host or cells: HEK-293-MSR-II cells transduced with 1% BacMam virus
Assay: Ligand-gated assay (Fluo4 calcium, FLIPR; inhibition of agonist-induced activation)
Assay type: cell-based
Settings: HEK-293-MSR-II cells transduced with BacMam human TRPV4; agonist at EC80
How it was run: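 HEK-293-MSR-II cells BacMam-transduced with human TRPV4, loaded with 2 uM Fluo-4. Compound preincubated 10 min at room temperature in HBSS pH 7.4 plus 0.01% Chaps, then agonist added at its EC80. Inhibition of agonist-evoked calcium rise read on FLIPR; IC50 reported.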

T1 sequence (Q9HBA0 whole entry): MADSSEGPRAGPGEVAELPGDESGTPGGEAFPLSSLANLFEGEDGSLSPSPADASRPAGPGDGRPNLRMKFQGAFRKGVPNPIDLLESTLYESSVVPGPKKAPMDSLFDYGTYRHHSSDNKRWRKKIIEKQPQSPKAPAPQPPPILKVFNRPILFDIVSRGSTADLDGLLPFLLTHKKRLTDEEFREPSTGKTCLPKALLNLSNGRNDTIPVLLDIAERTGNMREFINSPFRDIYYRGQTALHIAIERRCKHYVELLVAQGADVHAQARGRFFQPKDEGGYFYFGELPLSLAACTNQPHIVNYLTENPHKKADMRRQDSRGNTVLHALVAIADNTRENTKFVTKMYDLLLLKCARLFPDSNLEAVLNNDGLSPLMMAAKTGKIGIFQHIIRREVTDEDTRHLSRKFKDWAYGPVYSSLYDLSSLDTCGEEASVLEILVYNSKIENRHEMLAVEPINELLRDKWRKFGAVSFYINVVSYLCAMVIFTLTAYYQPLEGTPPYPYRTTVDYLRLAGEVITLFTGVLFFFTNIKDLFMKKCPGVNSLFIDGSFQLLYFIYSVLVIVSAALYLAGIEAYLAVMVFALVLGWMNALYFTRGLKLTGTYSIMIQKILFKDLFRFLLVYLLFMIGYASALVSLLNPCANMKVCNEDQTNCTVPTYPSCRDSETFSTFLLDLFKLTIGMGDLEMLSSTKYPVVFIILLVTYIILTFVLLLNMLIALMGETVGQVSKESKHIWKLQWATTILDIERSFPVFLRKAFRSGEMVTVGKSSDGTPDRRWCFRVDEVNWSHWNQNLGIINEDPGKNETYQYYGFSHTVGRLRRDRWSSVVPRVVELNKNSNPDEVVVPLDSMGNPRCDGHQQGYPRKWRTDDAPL

| SMILES | IC50 [µM] |
| --- | --- |
| CC(C)(C#N)c1ccc(N2C[C@@]3(CCC[C@](C)(Cn4cnc5ccc(C#N)cc54)C3)OC2=O)cn1 [Example 133, 1-(((5S,7S)-3-(6-(2-cyanopropan-2-yl)pyridin-3-yl)-7-methyl-2-oxo-1-oxa-3-azaspiro[4.5]decan-7-yl)methyl]-1H-benzo[d]imidazole-6-carbonitrile] | 0.0001 to 0.01 |
| CC(C)(CN1C[C@@]2(CCC[C@H](Cn3cnc4ccc(C#N)cc43)C2)OC1=O)c1nc(C2CCOCC2)no1 [Example 65, 1-[((5S,7S)-3-{2-methyl-2-[3-(tetrahydro-2H-pyran-4-yl)-1,2,4-oxadiazol-5-yl]propyl}-2-oxo-1-oxa-3-azaspiro[4.5]dec-7-yl)methyl]-1H-benzimidazole-6-carbonitrile] | 0.01 to 0.05 |
| COc1ncc(N2C[C@@]3(CCC[C@](C)(Cn4cnc5ccc(C#N)cc54)C3)OC2=O)cc1C [Example 132, 1-(((5S,7S)-3-(6-methoxy-5-methylpyridin-3-yl)-7-methyl-2-oxo-1-oxa-3-azaspiro[4.5]decan-7-yl)methyl)-1H-benzo[d]imidazole-6-carbonitrile] | 0.0001 to 0.01 |
| CCOc1ccnc(CN2C[C@@]3(CCC[C@](C)(Cn4cnc5ccc(C#N)cc54)C3)OC2=O)c1 [Example 156, 1-(((5S,7S)-3-((4-ethoxypyridin-2-yl)methyl)-7-methyl-2-oxo-1-oxa-3-azaspiro[4.5]decan-7-yl)methyl)-1H-benzo[d]imidazole-6-carbonitrile] | 0.0001 to 0.01 |
| C[C@]1(Cn2cnc3ccc(C#N)cc32)CCC[C@@]2(CN(Cc3ccccn3)C(=O)O2)C1 [Example 4, 1-{[(5S,7S)-7-Methyl-2-oxo-3-(2-pyridinylmethyl)-1-oxa-3-azaspiro[4.5]dec-7-yl]methyl}-1H-benzimidazole-6-carbonitrile] | 0.0001 to 0.01 |
| CC1(CN2C[C@@]3(CCC[C@H](Cn4cnc5ccc(C#N)cc54)C3)OC2=O)CCN(c2ncccn2)C1 (stereo partly drawn) [Example 7, 1-[((5S,7S)-3-{[3-Methyl-1-(2-pyrimidinyl)-3-pyrrolidinyl]methyl}-2-oxo-1-oxa-3-azaspiro[4.5]dec-7-yl)methyl]-1H-benzimidazole-6-carbonitrile] | 0.05 to 0.5 |
| N#Cc1ccc2ncn(C[C@H]3CCC[C@]4(C3)CN(Cc3csc5ncccc35)C(=O)O4)c2c1 [Example 151, 1-{[(5S,7S)-2-oxo-3-(thieno[2,3-b]pyridin-3-ylmethyl)-1-oxa-3-azaspiro[4.5]dec-7-yl]methyl}-1H-benzimidazole-6-carbonitrile] | 0.05 to 0.5 |
| CC(C)c1noc(C(C)(C)CN2C[C@@]3(CCC[C@H](Cn4cnc5ccc(C#N)cc54)C3)OC2=O)n1 [Example 76, 1-[((5S,7S)-3-{2-methyl-2-[3-(1-methylethyl)-1,2,4-oxadiazol-5-yl]propyl}-2-oxo-1-oxa-3-azaspiro[4.5]dec-7-yl)methyl]-1H-benzimidazole-6-carbonitrile] | 0.0001 to 0.01 |
| CC(C)(OCCOP(C)(C)=O)c1cnc(N2C[C@@]3(CCC[C@](C)(Cn4cnc5ccc(C#N)cc54)C3)OC2=O)cn1 [Example 164, 2-((2-(5-((5S,7S)-7-((6-cyano-1H-benzo[d]imidazol-1-yl)methyl)-7-methyl-2-oxo-1-oxa-3-azaspiro[4.5]decan-3-yl)pyrazin-2-yl)propan-2-yl)oxy)ethyl dimethylphosphinate] | 0.01 to 0.05 |
| CC(C)(C)c1noc(N2C[C@@]3(CCC[C@](C)(Cn4cnc5ccc(C#N)cc54)C3)OC2=O)c1Br [Example 108, 1-({(5S,7S)-3-[4-bromo-3-(1,1-dimethylethyl)-5-isoxazolyl]-7-methyl-2-oxo-1-oxa-3-azaspiro[4.5]dec-7-yl}methyl)-1H-benzimidazole-6-carbonitrile] | 0.0001 to 0.01 |
| CC(C)(C)c1ccc(N2C[C@@]3(CCC[C@](C)(Cn4cnc5ccc(C#N)cc54)C3)OC2=O)nn1 [Example 48, 1-(((5S,7S)-3-(6-(tert-butyl)pyridazin-3-yl)-7-methyl-2-oxo-1-oxa-3-azaspiro[4.5]decan-7-yl)methyl)-1H-benzo[d]imidazole-6-carbonitrile] | 0.0001 to 0.01 |
| C[C@]1(Cn2cnc3ccc(C#N)cc32)CCC[C@@]2(CN(c3ccc(Cl)nc3)C(=O)O2)C1 [Example 18] | 0.01 to 0.05 |
| CCc1cc(N2C[C@@]3(CCC[C@](C)(Cn4cnc5ccc(C#N)cc54)C3)OC2=O)on1 [Example 33, 1-{[(5S,7S)-3-(3-ethyl-5-isoxazolyl)-7-methyl-2-oxo-1-oxa-3-azaspiro[4.5]dec-7-yl]methyl}-1H-benzimidazole-6-carbonitrile] | 0.01 to 0.05 |
| Cc1ccc(-n2cc(CN3C[C@@]4(CCC[C@H](Cn5cnc6ccc(C#N)cc65)C4)OC3=O)nn2)cc1 [Example 91, 1-[((5S,7S)-3-{[1-(4-methylphenyl)-1H-1,2,3-triazol-4-yl]methyl}-2-oxo-1-oxa-3-azaspiro[4.5]dec-7-yl)methyl]-1H-benzimidazole-6-carbonitrile] | 0.05 to 0.5 |
| N#Cc1cc(Cl)c2ncn(C[C@H]3CCC[C@]4(C3)CN(CC3(c5nc(C6CCCC6)no5)CCOCC3)C(=O)O4)c2c1 [Example 85, 4-chloro-1-[((5S,7S)-3-{[4-(3-cyclopentyl-1,2,4-oxadiazol-5-yl)tetrahydro-2H-pyran-4-yl]methyl}-2-oxo-1-oxa-3-azaspiro[4.5]dec-7-yl)methyl]-1H-benzimidazole-6-carbonitrile] | 0.0001 to 0.01 |
| N#Cc1cc(Cl)cc(-n2cc(CN3C[C@@]4(CCC[C@H](Cn5cnc6ccc(C#N)cc65)C4)OC3=O)nn2)c1 [Example 99, 1-[((5S,7S)-3-{[1-(3-chloro-5-cyanophenyl)-1H-1,2,3-triazol-4-yl]methyl}-2-oxo-1-oxa-3-azaspiro[4.5]dec-7-yl)methyl]-1H-benzimidazole-6-carbonitrile] | 0.0001 to 0.01 |
| N#Cc1ccc2ccn(C[C@H]3CCC[C@]4(C3)CN(Cc3csc5ccc(Cl)cc35)C(=O)O4)c2c1 (stereo in doubt) [Example 59, 1-({3-[(5-chloro-1-benzothien-3-yl)methyl]-2-oxo-1-oxa-3-azaspiro[4.5]dec-7-yl}methyl)-1H-indole-6-carbonitrile] | 0.05 to 0.5 |
| CN(C)c1cnc(N2C[C@@]3(CCC[C@](C)(Cn4cnc5ccc(C#N)cc54)C3)OC2=O)cn1 [Example 150, 1-(((5S,7S)-3-(5-(dimethylamino)pyrazin-2-yl)-7-methyl-2-oxo-1-oxa-3-azaspiro[4.5]decan-7-yl)methyl)-1H-benzo[d]imidazole-6-carbonitrile] | 0.05 to 0.5 |
| C[C@]1(Cn2cnc3ccc(C#N)cc32)CCC[C@@]2(CN(c3cc(-c4ccccc4)no3)C(=O)O2)C1 [Example 35, 1-{[(5S,7S)-7-methyl-2-oxo-3-(3-phenyl-5-isoxazolyl)-1-oxa-3-azaspiro[4.5]dec-7-yl]methyl}-1H-benzimidazole-6-carbonitrile] | 0.01 to 0.05 |
| Cc1c(C(C)(C)C)noc1N1C[C@@]2(CCC[C@](C)(Cn3cnc4ccc(C#N)cc43)C2)OC1=O [Example 41, 1-(((5S,7S)-3-(3-(tert-butyl)-4-methylisoxazol-5-yl)-7-methyl-2-oxo-1-oxa-3-azaspiro[4.5]decan-7-yl)methyl)-1H-benzo[d]imidazole-6-carbonitrile] | 0.0001 to 0.01 |
| COc1nc(C)ccc1N1C[C@@]2(CCC[C@](C)(Cn3cnc4ccc(C#N)cc43)C2)OC1=O [Example 126, 1-(((5S,7S)-3-(2-methoxy-6-methylpyridin-3-yl)-7-methyl-2-oxo-1-oxa-3-azaspiro[4.5]decan-7-yl)methyl)-1H-benzo[d]imidazole-6-carbonitrile] | 0.0001 to 0.01 |
| N#Cc1ccc2ncn(C[C@H]3CCC[C@]4(C3)CN(Cc3cn(-c5cc(F)cc(F)c5)nn3)C(=O)O4)c2c1 [Example 101, 1-[((5S,7S)-3-{[1-(3,5-difluorophenyl)-1H-1,2,3-triazol-4-yl]methyl}-2-oxo-1-oxa-3-azaspiro[4.5]dec-7-yl)methyl]-1H-benzimidazole-6-carbonitrile] | 0.01 to 0.05 |
| COc1cccc(-n2cc(CN3C[C@@]4(CCC[C@H](Cn5cnc6ccc(C#N)cc65)C4)OC3=O)nn2)c1 [Example 95, 1-{[(5S,7S)-3-({1-[3-(methyloxy)phenyl]-1H-1,2,3-triazol-4-yl}methyl)-2-oxo-1-oxa-3-azaspiro[4.5]dec-7-yl]methyl}-1H-benzimidazole-6-carbonitrile] | 0.01 to 0.05 |
| N#Cc1ccc2ncn(C[C@H]3CCC[C@]4(C3)CN(Cc3cn(-c5ccc(C#N)c(C(F)(F)F)c5)nn3)C(=O)O4)c2c1 [Example 98, 1-{[(5S,7S)-3-({1-[4-cyano-3-(trifluoromethyl)phenyl]-1H-1,2,3-triazol-4-yl}methyl)-2-oxo-1-oxa-C azaspiro[4.5]dec-7-yl]methyl}-1H benzimidazole-6-carbonitrile] | 0.0001 to 0.01 |
| N#Cc1ccc2ncn(C[C@H]3CCC[C@]4(C3)CN(Cc3cc(-c5ccccc5)no3)C(=O)O4)c2c1 [Example 68, 1-({(5S,7S)-2-oxo-3-[(3-phenyl-5-isoxazolyl)methyl]-1-oxa-3-azaspiro[4.5]dec-7-yl}methyl)-1H-benzimidazole-6-carbonitrile] | 0.01 to 0.05 |
| CC(C)Cc1noc(C(C)(C)CN2C[C@@]3(CCC[C@H](Cn4cnc5ccc(C#N)cc54)C3)OC2=O)n1 [Example 82, 1-[((5S,7S)-3-{2-methyl-2-[3-(2-methylpropyl)-1,2,4-oxadiazol-5-yl]propyl}-2-oxo-1-oxa-3-azaspiro[4.5]dec-7-yl)methyl]-1H-benzimidazole-6-carbonitrile] | 0.0001 to 0.01 |
| Cc1c(C(C)(C)C)noc1N1C[C@@]2(CCC[C@H](Cn3cnc4ccc(C#N)cc43)C2)OC1=O [Example 46, 1-(((5S,7S)-3-(3-(tert-butyl)-4-methylisoxazol-5-yl)-2-oxo-1-oxa-3-azaspiro[4.5]decan-7-yl)methyl)-1H-benzo[d]imidazole-6-carbonitrile] | 0.0001 to 0.01 |
| N#Cc1ccc(-n2cc(CN3C[C@@]4(CCC[C@H](Cn5cnc6ccc(C#N)cc65)C4)OC3=O)nn2)cc1 [Example 88, 1-[((5S,7S)-3-{[1-(4-cyanophenyl)-1H-1,2,3-triazol-4-yl]methyl}-2-oxo-1-oxa-3-azaspiro[4.5]dec-7-yl)methyl]-1H-benzimidazole-6-carbonitrile] | 0.05 to 0.5 |
